The results in this text go back to patent US12590093B2, “Indolo[2′,3′:3,4]pyrido[2,1-b]quinazoline compound and use thereof” (INSTITUTE OF MEDICINAL BIOTECHNOLOGY CHINESE ACADEMY OF …, priority 2019, dated 2026).

The test system of one assay is NF-κB signaling pathway. The assay can be described thus: Western-blot of NF-κB signaling pathway in liver of ApoE−/− mice. It is filed as in vivo. The following applies: FIG. 7. The procedure:
(§1) 6-week-old male C57/BL6 ApoE^−/− mice were fed on normal chaw diet for one week. The mice were randomly divided into three groups (control group, high-fat diet model group, and treatment group, 12 mice per group) according to the body weight. From 7-week-old, the high-fat diet model group and the treatment group were fed on a high fat diet (HFD) (0.15% cholesterol and 20% fat), and the control group was fed on normal chow diet. The treatment group (R3) mice were administered intragastrically with TR3 (5 mg/kg). The control group and the high-fat diet model group mice were intragastrically administered with sodium carboxymethylcellulose (CMC-Na) solution. After 12 weeks of administration, all mice were fasted overnight. The blood sample was taken from the retro-orbital plexus, collected in a EP tube, and then centrifuged for 15 min (2500 rpm). The centrifuged serum (upper layer) was transferred to new EP tubes (divided into two aliquots) and stored at −20° C. for further use. […]
(§2) When animal tissues were used to prepare protein samples, the tissues were firstly homogenized and lysed in the RIPA lysis buffer. […] When cell supernatants were used to prepare protein samples, the supernatants were freeze-dried, needed to be extracted using a protein recovery kit (Applygen, Beijing, China), and then analyzed by western-blot. […]

The subject of a further assay is MAPK signaling pathway. In words: Western-blot of MAPK signaling pathway in ApoE−/− mice. It is filed as in vivo. As to conditions: FIG. 8. As to the method: as §1, with “use. The mice were fixed, and the skin was cut open along the midline of the abdomen to the neck. The abdominal cavity was cut open to collect the fresh liver tissue. The Liver tissue was put into 3 freezing tubes, and then immediately put into liquid nitrogen for subsequent detection of liver lipid detection and extraction of RNA and protein. The thorax was cut open to expose the heart. The heart was perfused with 10 ml PBS, and then fixed by perfusion with 4% paraformaldehyde solution until the liver turned white. The fixed liver was taken out and placed in a six-well plate containing 4% paraformaldehyde solution for further fixation.” for “use.”
as §2

For a further assay, the system named is SR-BI. The assay can be described thus: SR-BI protein expression in liver of ApoE−/− mice. It is filed as in vivo. As to conditions: FIG. 10. The procedure: as §1
When animal tissues were used to prepare protein samples, the tissues were firstly homogenized and lysed in the RIPA lysis buffer. […] When cell supernatants were used to prepare protein samples, the supernatants were freeze-dried, needed to be extracted using a protein recovery kit (Applygen, Beijing, China), and then analyzed by western-blot.

In the next assay the test system is ApoE^−/− mice. In words: Serum inflammatory factor levels in ApoE−/− mice (ELISA). It is filed as in vivo. The following applies: 5 mg/kg intragastrically, 12 weeks, HFD. As to the method:
6-week-old male C57/BL6 ApoE^−/− mice were fed on normal chaw diet for one week. The mice were randomly divided into three groups (control group, high-fat diet model group, and treatment group, 12 mice per group) according to the body weight. From 7-week-old, the high-fat diet model group and the treatment group were fed on a high fat diet (HFD) (0.15% cholesterol and 20% fat), and the control group was fed on normal chow diet. The treatment group (R3) mice were administered intragastrically with TR3 (5 mg/kg). The control group and the high-fat diet model group mice were intragastrically administered with sodium carboxymethylcellulose (CMC-Na) solution. After 12 weeks of administration, all mice were fasted overnight. The blood sample was taken from the retro-orbital plexus, collected in a EP tube, and then centrifuged for 15 min (2500 rpm). The centrifuged serum (upper layer) was transferred to new EP tubes (divided into two aliquots) and stored at −20° C. for further use. The mice were fixed, and the skin was cut open along the midline of the abdomen to the neck. The abdominal cavity was cut open to collect the fresh liver tissue. The Liver tissue was put into 3 freezing tubes, and then immediately put into liquid nitrogen for subsequent detection of liver lipid detection and extraction of RNA and protein. The thorax was cut open to expose the heart. The heart was perfused with 10 ml PBS, and then fixed by perfusion with 4% paraformaldehyde solution until the liver turned white. The fixed liver was taken out and placed in a six-well plate containing 4% paraformaldehyde solution for further fixation. The full-length aorta (from the ascending aorta to the common iliac arteries) was isolated and placed in a six-well plate containing 4% paraformaldehyde solution. The aorta was fixed in 4% paraformaldehyde solution overnight and then stored in 20% sucrose solution at 4° C.
The levels of IL-1β, IL-18, IL-6, TNF-α and IL-10 in the serum of ApoE^−/− mice were measured by using the corresponding ELISA kits (Nanjing Sen Bei Jia Biotechnology Co., Ltd., Nanjing, China). Standard dilution and addition: the standard was diluted by gradient, and 10 wells on the coated ELISA plate were set for standard addition. Sample addition: blank wells and sample wells were set separately. The sample wells of the coated ELISA plates were first added with 40 μL sample diluent, and then added 10 μL sample (the final dilution of the sample is 5-fold). […] Assay detection: the absorbance at 450 nm of each well was read with the absorbance at 450 nm of the blank well as zero, and this process was performed within 15 min after the stop solution was added.
(ELISA stands for enzyme-linked immunosorbent assay.)

The next assay relates to ABCA1. The assay can be described thus: ABCA1 up-regulation, luciferase reporter in ABCA1P-LUC HepG2 cells. It is filed as cell-based. The following applies: Homo sapiens, 18 h, maximum up-regulation fold of luciferase activity versus DMSO, read-out: ABCA1 max. The procedure: Experiments were conducted to detect whether the compounds of the disclosure can pharmacologically up-regulate the expression of ABCA1 and SR-BI. Firstly, ABCA1P-LUC HepG2 cells or SR-BI-LUC HepG2 cells in logarithmic growth phase were digested, diluted in cell culture medium, and counted. Cells were seeded into 96-well plates at a density of 5×10^5/ml (100 μL of the single-cell suspension per well). After cells fully adhered (about 6 h), the medium containing 10% FBS was removed, and the cells were gently washed with PBS. Serum free MEM-EBSS medium (200 μL per test well) and 2 μL of the compounds to be tested (at a final concentration of 10 μg/mL) were added to each test well, and meanwhile, DMSO at a corresponding concentration was added to the control well. After 18-24 h, the medium was removed. Cell Luciferase activity was measured by a method as described in the Luciferase Assay System. By optimizing the final concentration of DMSO, the treatment time of the compounds on the cells and the number of cells seeded into each well during the screening, the final screening conditions were determined as follows: each well is seeded with 5×10^4 cells, DMSO is added at a final concentration of 1%, and the sample is treated for 18 h.
The ratio of change of luciferase activity is calculated with the following formula: Ratio of change (%)=A/B×100;
wherein A is the luciferase activity (RLU) measured after the compound to be tested is added, and B is the luciferase activity (RLU) measured after the blank control (DMSO) is added. The luciferase activity of cells in each well was measured, and the dose-effect relationship between the concentration of the compound and the ratio of change of the luciferase activity was determined to calculate the EC50.
(In a reporter assay the amount or activity of a reporter protein is the signal.)

In the case of `c1ccc2c(c1)CN1CCc3c([nH]c4ccccc34)C1=N2` [TR3, 5,7,8,13-tetrahydroindolo[2′,3′:3,4]pyrido[2,1-b]quinazoline], in the assay on NF-κB signaling pathway, the “expression of p-IκBα” value is given as “significantly inhibited” and the “expression of p-P65” value is “significantly inhibited”. In addition, in the assay with MAPK signaling pathway, the “expression of p-ERK” value is listed as “also inhibited”, the “expression of p-JNK” value was “also inhibited” and the “expression of p-P38” value was “also inhibited”. Moreover, in the assay with SR-BI, the “expression of SR-BI in the liver” value was “increased”. Further, in the assay with ApoE^−/− mice, the “level of IL-1β in mouse serum” value is “decreased the levels of IL-1β, IL-18 and IL-6 significantly”; the “level of IL-6 in mouse serum” value was “decreased the levels of IL-1β, IL-18 and IL-6 significantly”; the “level of IL-18 in mouse serum” value is “decreased the levels of IL-1β, IL-18 and IL-6 significantly”; the “level of TNF-α in mouse serum” value is “decreased the levels of IL-1β, IL-18 and IL-6 significantly and the level of TNF-α slightly”. Besides, the maximal fold induction in the assay with ABCA1 amounted to 2.26.
